Source: patent US20260001911A1, “CYCLIC PEPTIDE COMPOUND CONTAINING PIPERAZIC ACID, METHOD OF PRODUCING SAME, AND USES OF SAME” (MolGenBio Co., Ltd., priority 2020, published 2026)
Like-named read-outs stand apart in the source and are kept apart here. Numbered stars: 1 amine (or outer) side, 2 acyl side, 3 side chain; on linkers, the order of the positions; unused ones are H or OH. Square brackets hold non-standard residues; d marks the D form. Peptide text beside a SMILES is read from it. NMeF = CN[CH](Cc1ccccc1)C(=O)O; X1 = O=C(C1CCCNN1[*:1])[*:2]; NMeV = CN[CH](C(=O)O)C(C)C; NMeS = CN[CH](CO)C(=O)O; NMeA = CN[CH](C)C(=O)O; βAla = NCCC(=O)O

Experiments:
[1] = tested on: colorectal cancer cell HCT116; experiment: cells
Protocol: (§1) 6 types of cancer cell lines of Lung adenocarcinoma cell A549, colorectal cancer cell HCT116, breast cancer cell MDA-MB-231, liver adenocarcinoma cell SK-HEP-1, stomach adenocarcinoma cell SNU638, and chronic myeloid leukemia cell K562,and a normal cell line of pulmonary fibroblast MRC-5 were purchased from Korean Cell Line Bank (Seoul, Korea).
(§2) With Lenziamide compound prepared as in Example 1 added, the cell lines were cultured for about 72 hours. Thereafter, the resulting cell cultures were stained with sulforhodamine (SRB) that […] and washed to remove non-binding dye, and the stained cells were suspended in 10 mM of Tris (pH 10.0). The absorbance was measured at 515 nm and the cell proliferation was measured. Using TableCurve 2D v5.01 software (Systant Software Inc., Richmond, CA, USA), half maximal inhibitory concentration (IC50) value was calculated by nonlinear regression analysis method. All reagents were purchased from Sigma-Aldrich. As a positive control, etoposide was used.

[2] = tested on: HCT116-5-FU resistant cell line; experiment: SRB cell growth inhibition, 5-fluorouracil resistant HCT116-5-FU
Protocol: as §2
In order to prepare HCT116-5-FU resistant cell line, 5-fluorouracil was treated to HCT116 cells 3 times a week, and only surviving cells were subcultured with treatment of increasing concentrations of 5-fluorouracil for 3 months. HCT116-5-FU resistant cell line was established by finally collecting and culturing only the surviving cells.

[3] = tested on: breast cancer cell MDA-MB-231; experiment: cells
Protocol: as §1, §2

[4] = tested on: liver adenocarcinoma cell SK-HEP-1; experiment: cells
Protocol: as §1, §2

[5] = tested on: stomach adenocarcinoma cell SNU638; experiment: cells
Protocol: as §1, §2

[6] = tested on: pulmonary fibroblast MRC-5; experiment: cells
Protocol: as §1, §2

[7] = tested on: Lung adenocarcinoma cell A549; experiment: cells
Protocol: as §1, §2

[8] = tested on: chronic myeloid leukemia cell K562; experiment: cells
Protocol: as §1, §2

[9] = tested on: HCT116-5-FU resistant cell line xenograft; experiment: HCT116-5-FU resistant xenograft animal model; format: in vivo, BALB/c mice; conditions: 10 mg/kg intravenous
Protocol: HCT116-5-FU resistant cell line prepared as described in Example 2-5 was diluted to a concentration of […] in RPMI medium, and 0.2 mL of the diluted cell line was injected subcutaneously to right flanks of BALB/c mice (5-week old, male). When the size of the tumor reached about 100 mm^3, groups were randomly divided based on the size of the tumor.
Lenziamide A (10 mg/body weight kg), 5-FU (30 mg/body weight kg), or a combination thereof (10 mg/body weight kg of lenziamide A+30 mg/body weight kg of 5-FU) was administered by intravenous injection to resistant cancer cell line injected xenograft animal models. A mixture mixed at a ratio of dimethyl sulfoxide: Cremophor: saline=0.5:0.5:9 was used as a negative control. Volumes of tumor (mm^3) and body weights of the xenograft animal models (g) were measured from the first day of administration, and the results are shown in FIGS. 5A and 5B.

[10] = tested on: HCT116 colorectal cancer xenograft; experiment: HCT116 xenograft animal model; format: in vivo; conditions: 10, 30 mg/kg intravenous
Protocol: Cells of HCT116, a human-derived colorectal cancer cell line, were diluted to a concentration of 5×10^6 units/mL in RPMI (Roswell Park Memorial Institute) medium, and 0.2 mL of the diluted cells was injected subcutaneously to right flank of BALB/c mice (5-week old, male). When the size of the tumor reached about 100 mm^3, groups were randomly divided based on the size of the tumor.
Lenziamide A was administered by intravenous injection at a dose of 10 mg/body weight kg or 30 mg/body weight kg to the prepared xenograft animal models. A mixture mixed at a ratio of dimethyl sulfoxide: Cremophor: saline=0.5:0.5:9 was used as a negative control, and irinotecan was used as a positive control. Volume of the tumor (mm^3), body weight of the xenograft animal model (g), and final weight of the tumor (g) were measured from the first day of administration, and the results are shown in FIGS. 4A to 4C.

[11] = tested on: colorectal cancer cell line HCT116; experiment: Cell cycle analysis by flow cytometry; format: cell-based, human
Protocol: In order to identify the action mechanism of lenziamide A showing an excellent cell proliferation inhibiting efficacy, cells of colorectal cancer cell line HCT116 were treated with lenziamide A at a concentration of 0 μM, 1.25 μM, 2.5 μM, or […]. The cell cycle control effect of lenziamide A was confirmed by using flow cytometry method, and the results are shown in FIGS. 2A and 2B.

[12] = tested on: metastatic colorectal cancer cell line (L-2); experiment: Expression of metastasis related biomarkers; format: cell-based; conditions: L-2 cells, 0 μM to 4 μM
Protocol: of non-metastatic cancer, thereby making it very difficult to treat it. A colorectal cancer cell line (C-1) was injected into appendix of laboratory mice and left for 6 weeks to artificially induce growth and metastasis of tumor, and colorectal cancer cells metastasized to the liver (L-2) were isolated and cultured. After administering 0 μM to 4 μM of lenziamide A to colorectal cancer cell line (C-1) and metastatic colorectal cancer cell line (L-2) obtained above, expression of biomarkers related to metastasis of cancer was identified by reverse transcription polymerase chain reaction (RT-PCR), and the results are shown in FIG. 6A.

HCT116 cells = experiment: Annexin V/propidium iodide dual-stain analysis; format: cell-based, human
Protocol: In order to confirm that sub G1 cell accumulation due to G2/M arrest effect of lenziamide A leads to cell apoptosis, HCT116 cells were treated with different concentrations of lenziamide A. Thereafter, cell death induction efficacy of lenziamide A was evaluated by using Annexin V/propidium iodide dual-stain analysis method which can identify cell deaths. The results of Annexin V/propidium iodide dual-stain analysis were shown in FIG. 3A, and stages of cells according to the concentration of lenziamide A were shown in FIG. 3B. The ratios (%) of live cells, early apoptosis, late apoptosis, necrosis, and total cell death were calculated.

[13] = tested on: metastatic colorectal cancer cell line (L-2); experiment: Metastatic colorectal cancer cell (L-2) injected animal model; format: in vivo, laboratory mice; conditions: 5 mg/kg or 15 mg/kg
Protocol: As described in Example 2-7 (1), a metastatic colorectal cancer cell line (L-2) was re-injected into appendix of laboratory mice to form tumor, and lenziamide A was administered at a dose of 5 mg/body weight kg or 15 mg/body weight kg. A mixture mixed at a ratio of dimethyl sulfoxide: Cremophor: saline=0.5:0.5:9 was used as a negative control. 10 mg/body weight kg of irinotecan was administered as a positive control. Volumes of tumor (mm3) and body weights of the xenograft animal model (g) were measured from the first day of administration, and the results are shown in FIGS. 6B and 6C.

[14] = Homo sapiens, HCT-116, read-out: IC50 HCT116
[15] = Homo sapiens, read-out: IC50 HCT116-5-FU

| SMILES | IC50 [1, 14] | IC50 [2, 15] | IC50 ([3]; 72 h) | IC50 ([4]; 72 h) | IC50 ([1]; 72 h) | IC50 ([5]; 72 h) | IC50 ([7]; 72 h) | IC50 ([8]; 72 h) | Fold change (HCT116-5-FU/HCT116) [2] | IC50 ([6]; 72 h) | also measured |
| --- | --- | --- | --- | --- | --- | --- | --- | --- | --- | --- | --- |
| O=c1[nH]cc(F)c(=O)[nH]1 [5-fluorouracil] | 4220 nM | 36700 nM | – | – | – | – | – | – | 8.70 | – | – |
| COc1cc([C@@H]2c3cc4c(cc3[C@@H](O[C@@H]3O[C@@H]5CO[C@@H](C)O[C@H]5[C@H](O)[C@H]3O)[C@H]3COC(=O)[C@H]23)OCO4)cc(OC)c1O [Etoposide, reference compound] | 760 nM | 1920 nM | – | – | – | – | – | – | 2.53 | – | IC50 ([3]; Homo sapiens, MDA-MB-231, 72 h, read-out: IC50 MDA-MB-231): 3360 nM; IC50 ([4]; Homo sapiens, SK-HEP1, 72 h, read-out: IC50 SK-HEP-1): 450 nM; IC50 ([1]; Homo sapiens, HCT-116, 72 h, read-out: IC50 HCT116): 1860 nM; IC50 ([5]; Homo sapiens, SNU-638, 72 h, read-out: IC50 SNU638): 480 nM; IC50 ([6]; Homo sapiens, MRC5, 72 h, read-out: IC50 MRC-5): 11600 nM; IC50 ([7]; Homo sapiens, A549, 72 h, read-out: IC50 A549): 590 nM; IC50 ([8]; Homo sapiens, K562, 72 h, read-out: IC50 K562): 760 nM |
| CCC(C)C1NC(=O)C(Cc2ccccc2)N(C)C(=O)C2CCCNN2C(=O)C(CO)N(C)C(=O)C(CC(C)C)NC(=O)C(Cc2ccccc2)N(C)C(=O)C(C)NC(=O)C(C(C)C)N(C)C(=O)CCNC(=O)C(C)N(C)C1=O (stereo not shown) [Lenziamide A] (cyclo([X1][NMeF]I[NMeA][βAla][NMeV]A[NMeF]L[NMeS]); configuration not given here) | – | – | 620 nM | 390 nM | 370 nM | 440 nM | 800 nM | 770 nM | – | > 20000 nM | IC50 [1]: 360 nM; body weight [9]: without significant weight loss; growth of resistant tumor [9]: effectively inhibited growth of resistant tumor; tumor growth (volume, final weight) [10]: concentration-dependent tumor growth inhibitory effect; body weight (toxicity) ([10]; during administration period): no significant weight decrease; sub G1 cell accumulation (cell death) ([11]; after G2/M arrest, high concentration): followed by sub G1 cell accumulation; G2/M cell cycle arrest ([11]; until 24 hours after treatment, 0-5 μM): G2/M cell cycle arrest was increased; expression of E-cadherin [12]: increased; expression of N-Cadherin and vimentin [12]: decreased; growth of HCT116-5-FU resistant cell line [2]: effectively inhibited growth of HCT116-5-FU resistant cell line; IC50 ([2]; 72 h): 420 nM; Fold change (HCT116-5-FU/HCT116) ([2]; IC50 of HCT116-5-FU with respect to IC50 of HCT116): 1.16; early apoptosis cell population (HCT116 cells; 5 μM): about 20.37%; late apoptosis cell population (HCT116 cells; 5 μM): 51.40%; apoptosis (HCT116 cells; different concentrations of lenziamide A): apoptosis increased dependent on the concentration; growth of tumor in the appendix [13]: also inhibited; metastasis of the tumor to other organs [13]: effectively inhibited |
| CC(C)CC1NC(C)C(Cc2ccccc2)N(C)C(=O)C(C)NC(=O)C(C(C)C)N(C)C(=O)CCNC(=O)C(C)N(C)C(=O)C(C(C)C)NC(=O)C(Cc2ccccc2)N(C)C(=O)C2CCCNN2C(=O)C(CO)N(C)C1=O (stereo not shown) [Lenziamide C] | – | – | 960 nM | 530 nM | 520 nM | 430 nM | 760 nM | 650 nM | – | > 20000 nM | – |

Further lines, with some results ahead:

| IC50 [1, 14] | IC50 [2, 15] | IC50 ([3]; 72 h) | IC50 ([4]; 72 h) | IC50 ([1]; 72 h) | IC50 ([5]; 72 h) | IC50 ([7]; 72 h) | IC50 ([8]; 72 h) | SMILES | Fold change (HCT116-5-FU/HCT116) [2] | IC50 ([6]; 72 h) | also measured |
| --- | --- | --- | --- | --- | --- | --- | --- | --- | --- | --- | --- |
| 1520 nM | 5650 nM | – | – | – | – | – | – | CCc1c2c(nc3ccc(OC(=O)N4CCC(N5CCCCC5)CC4)cc13)-c1cc3c(c(=O)n1C2)COC(=O)[C@]3(O)CC [Irinotecan] | 3.72 | – | – |
| – | – | 230 nM | 220 nM | 200 nM | 250 nM | 430 nM | 360 nM | CCC(C)C1NC(=O)C(Cc2c[nH]c3ccccc23)N(C)C(=O)C2CCCNN2C(=O)C(CO)N(C)C(=O)C(CC(C)C)NC(C)C(Cc2ccccc2)N(C)C(=O)C(C)NC(=O)C(C(C)C)N(C)C(=O)CCNC(=O)C(C)N(C)C1=O (stereo not shown) [Lenziamide B] | – | > 20000 nM | – |
| – | – | 1590 nM | 960 nM | 1010 nM | 1320 nM | 1780 nM | 1210 nM | CC(C)CC1NC(C)C(Cc2ccccc2)N(C)C(=O)C(C)NC(=O)C(C(C)C)N(C)C(=O)CCNC(=O)C(C)NC(=O)C(C(C)C)NC(=O)C(Cc2ccccc2)N(C)C(=O)C2CCCNN2C(=O)C(CO)N(C)C1=O (stereo not shown) [Lenziamide E] | – | > 20000 nM | – |
